Data reported in US11279744B2, “Neuropeptide Y fragment capable of releasing hematopoietic stem cells into blood and treating osteoporosis” (Kyungpook National University Industry-Academic Cooperation …, priority 2017, dated 2022).
“Also recorded” adds a separate entry of the source. Non-standard residues stand in square brackets, D forms with d. No end group written: not given here.

Tests used:
Assay type in all cases: in vivo, mouse
[1] = test system: myelopoiesis stem cells in the bone marrow; assay: Flow cytometry analysis (FACs) of stem cells in bone marrow of osteoporosis animal models; conditions: OVX mice, 50 μg/kg i.p. twice a day for 4 weeks; bone marrow 1 hour after last dose
Procedure: (§1) To make an osteoporosis model, 10-18 12 weeks old female mice per group underwent ovarian ablation. A week later, 50 μg/kg of NPY(21-28), NPY D^25(21-28), NPY D^26(21-28), NPY D^25,26(21-28), Osteopep2, NPY and 100 μl of PBS(Gibco) were intraperitoneally administered twice a day for 4 weeks at 12 hour intervals. Alendronate (Sigma), used as a competitive drug, was intraperitoneally administered once a week for 4 weeks at a dose of 50 μg/kg. As a control group, only Sham model of osteoporosis was performed by subcutaneous dissection of female mouse. Mice were placed in experimental groups using the Block randomization method, and all mouse experiments were approved through the Kyungpook National University Institutional Animal Care and Use Committee.
To examine the changes in the number of myelopoiesis stem cells in the bone marrow of the mouse, the bone marrows of mice were collected and analyzed by FACs using five antibodies such as Lineage, Sca-1, c-kit, CD150, and CD48 as markers of myelopoiesis stem cells. For the analysis of myelopoiesis stem cell, bone marrow collected from the tibias and the femurs in the animal models of osteoporosis injected with each peptide was removed from red blood cells with ammonium chloride solution (Stem Cell Technologies, Inc. 1:4). […] The remaining cells were reacted for 30 minutes at 4° C. using Sca-1-PECY7, c-kit-APC, CD150-PE, and CD48-FITC (BD science) antibodies, and then were analyzed by LSRII (BD science) flow cytometry.
(§2) In order to investigate whether the NPY (21-28) of the present invention affects the blood release of myelopoiesis stem cells in the animal models of osteoporosis, the following experiments were carried out according to the methods of Examples 1-1, 1-3, 1-4, and 1-5. […] Weight change was measured weekly, and bone marrow and blood were collected one hour after the last dose at 4 weeks, and the release of myelopoiesis progenitor and stem cells into blood was analyzed. […]

[2] = test system: adhesion factors of hematopoietic stem cell in bone marrow (Sdf-1a, KitI, Angpt1); assay: expression of adhesion factors in bone marrow of osteoporosis animal models, real-time quantitative PCR; conditions: OVX mice, 50 μg/kg i.p. twice a day for 4 weeks; bone marrow 1 hour after last administration
Procedure: as §1
Real-time quantitative PCR was used to measure expression levels of hematopoietic stem cell adhesion factors (Sdf-1a, KitI, Angpt1) present in osteoblasts. Total RNA was extracted from cell eluate and bone marrow cells using the RNeasy Plus mini kit (Qiagen, Korea, Ltd), and cDNAs were synthesized from 5 μg total RNA using a kit in Clontech (Mountain View, Calif.). In addition, using a Corbett research RG-6000 real-time PCR instrument, Real-time quantitative PCR was performed at 95° C. for 10 minutes; at 95° C., for 10 seconds; at 58° C., for 15 seconds; at 72° C. for 20 seconds as one cycle, and 40 cycles were repeated.
as §2, with “1-5. In order to make animal models of osteoporosis, 12 weeks old C57BL/6 female mice were subjected to ovarian ablation for 10 to 18 animals in each group.” for “1-5.”

[3] = test system: osteoclasts in bone marrow; assay: TRAP staining of osteoclasts in bone marrow of osteoporosis animal models; conditions: OVX mice, 50 μg/kg i.p. twice a day for 4 weeks; compared to PBS
Procedure: as §1
The femurs were separated from the mice and fixed in 4% paraformaldehyde for 24 hours, and tissue was decalcified in 10% EDTA for 5 weeks. It was then dehydrated with a series of diluted alcohols, paraffinized, and prepared into […] paraffin sections.
For TRAP staining, sections were deparaffinized, stained with 1.33 mM Fast Red Violet LB Salt (Sigma-Aldrich) in 50 mM sodium acetate (pH 5.0) containing 225 μM Naphthol AS-MX phosphate (Sigma-Aldrich, St Louis, Mo., USA), 0.84% N, N-dimethylformamide (Sigma-Aldrich) and 50 mM sodium tartrate, and incubated for 30 minutes. After incubation, the sections were washed with distilled water and counterstained with 1% methyl green.
Histomorphometric analysis was performed using the OsteoMeasure program (Extensive interactive Bone Histomorphometry Analysis System).
After the last administration at 4 weeks of NPY (21-28), the femurs were separated from the mice and the number of osteoclasts in the bone marrow was measured by TRAP staining.
After the last administration at 4 weeks of NPY D^25(21-28), NPY D^26(21-28), and NPY D^25,26(21-28), the femurs were separated from the mice and the number of osteoclasts in the bone marrow was measured by TRAP staining.

| Substance | number of myelopoiesis stem cells remaining in the bone marrow (FACs) [1] | expression levels of major adhesion factors Sdf-1a, KitI, and Angpt1 in bone marrow [2] | number of TRAP positive osteoclasts in bone marrow (Number of osteoclast/Bone surface) [3] | osteoclast surface (Osteoclast surface/Bone surface) [3] |
| --- | --- | --- | --- | --- |
| NPY D^25(21-28): peptide in which arginine, the fifth amino acid of the amino acid sequence of NPY (21-28), is modified to D-type (YSAL[dR]HYI) | reduced | decreased; also recorded: generally superior to those of NPY | reduced | reduced |
| NPY D^25,26(21-28): peptide in which both the fifth and sixth amino acids of NPY (21-28) are modified to D-form (YSAL[dR][dH]YI) | reduced | decreased; also recorded: generally superior to those of NPY | reduced; also recorded: highest efficiency | reduced |
| YSALRHYI [NPY (21-28)] | reduced | decreased | superior to Osteopep2 and NPY; also recorded: superior to the competitive drug Alendronate | superior to Osteopep2 and NPY; also recorded: superior to the competitive drug Alendronate |
